Source: patent publication US8334236B2, “Ring-fused 2-pyridone derivatives and herbicides” (Kumiai Chemical Industry Co., Ltd., priority 2009, dated 2012)

How the values were obtained:
Format in all cases: in vivo
Design in all cases: scale not given here
[1] = system: Echinochloa oryzicola Vasing; assay: Test Example 1: herbicidal effects in paddy field soil treatment; settings: 1000 g active ingredient per hectare, 21st day after treatment
Experimental: (§1) 100-cm^2 plastic pots were filled with paddy field soil. After puddling and leveling, seeds of Echinochloa oryzicola Vasing, Monochoria vaginalis (Burm. f.) Presl var. plantaginea (Roxb.) Solms-Laub., and Scirpus juncoides Roxb. var. ohwianus. T. Koyama were sowed in the pots, and the soil was waterlogged to a water depth of 3 cm. On the next day, a wettable powder formulation prepared according to Formulation Example 1 was diluted with water, and the dilution was added dropwise onto the water surface. The amount of application was an amount equivalent to 1000 g of the active ingredient per hectare. Thereafter, the plants were grown in a greenhouse, and on the 21st day after the treatment, the herbicidal effects were investigated according to the criteria described in Table 71.
(§2) In addition, comparative compound A, comparative compound B, comparative compound C, and comparative compound D in the tables represent Compound Nos. 70, 34, 32, and 31, respectively, as described in EP-283261. The structural formulas of these compounds are presented below.

[2] = system: Monochoria vaginalis (Burm. f.) Presl var. plantaginea (Roxb.) Solms-Laub.; assay: as above; settings: 1000 g active ingredient per hectare, 21st day after treatment
Experimental: as §1, §2

[3] = system: Scirpus juncoides Roxb. var. ohwianus. T. Koyama; assay: as above; settings: 1000 g active ingredient per hectare, 21st day after treatment
Experimental: as §1, §2

[4] = system: Abutilon theophrasti medicus; assay: Test Example 3: herbicidal effects in farmland foliar treatment; settings: 1000 g active ingredient per hectare, 14th day after treatment
Experimental: (§3) 80-cm^2 plastic pots were filled with farmland soil. Seeds of Echinochloa crus-galli (L.) P. Beauv. var. crus-galli, Abutilon theophrasti medicus, and Amaranthus retroflexus were sowed in the pots, and the plants were grown for two weeks in a greenhouse. A wettable powder formulation prepared according to Formulation Example 1 was diluted with water, and the dilution was applied by foliar treatment by spraying with a small sprayer over the whole plant from the upper part, in an amount equivalent to 1000 liters per hectare, such that 1000 g of the active ingredient was applied per hectare. Thereafter, the plants were grown in a greenhouse, and on the 14th day after the treatment, the herbicidal effects were investigated according to the criteria described in Table 71 shown above.

Amaranthus retroflexus [5] = assay: as above; settings: 1000 g active ingredient per hectare, 14th day after treatment
Experimental: as §3

[6] = system: Echinochloa crus-galli (L.) P. Beauv. var. crus-galli; assay: as above; settings: 1000 g active ingredient per hectare, 14th day after treatment
Experimental: as §3

Setaria viridis [7] = assay: as above; settings: 1000 g active ingredient per hectare, 14th day after treatment
[8] = system: Abutilon theophrasti medicus; assay: Test Example 2: herbicidal effects in farmland soil treatment; settings: 1000 g active ingredient per hectare, 21st day after treatment
Experimental: as §3, with “of” for “of Echinochloa crus-galli (L.) P. Beauv. var. crus-galli,”, “medicus” for “medicus,”, “soil was covered.” for “the plants were grown for two weeks in a greenhouse.”, “uniformly sprayed on the soil surface” for “applied by foliar treatment by spraying”, “sprayer,” for “sprayer over the whole plant from the upper part,”, “21st” for “14th”

Amaranthus retroflexus [9] = assay: as above; settings: 1000 g active ingredient per hectare, 21st day after treatment
Experimental: as §3, with “of” for “of Echinochloa crus-galli (L.) P. Beauv. var. crus-galli,”, “medicus” for “medicus,”, “soil was covered.” for “the plants were grown for two weeks in a greenhouse.”, “uniformly sprayed on the soil surface” for “applied by foliar treatment by spraying”, “sprayer,” for “sprayer over the whole plant from the upper part,”, “21st” for “14th”

Echinochloa crus-galli = assay: as above; settings: 1000 g active ingredient per hectare, 21st day after treatment
Setaria viridis [10] = assay: as above; settings: 1000 g active ingredient per hectare, 21st day after treatment

| Compound | Herbicidal effect index, Echinochloa oryzicola [1] | Herbicidal effect index, Monochoria vaginalis [2] | Herbicidal effect index, Scirpus juncoides [3] | Herbicidal effect index, Abutilon theoprasti [4] | Herbicidal effect index, Amaranthus retroflexus (Amaranthus retroflexus [5]) | Herbicidal effect index, Echinochloa crus-galli [6] | Herbicidal effect index, Setaria viridis (Setaria viridis [7]) | Herbicidal effect index, Abutilon thophrasti [8] | Herbicidal effect index, Amaranthus retroflexus (Amaranthus retroflexus [9]) | Herbicidal effect index, Echinochloa crus-galli (Echinochloa crus-galli) | Herbicidal effect index, Setaria viridis (Setaria viridis [10]) |
| --- | --- | --- | --- | --- | --- | --- | --- | --- | --- | --- | --- |
| COc1ccc(Cn2c(=O)c(C(=O)C3=C(O)CCCC3=O)cc3cccnc32)cc1 [II-39] | 5 | 5 | 5 | 5 | 5 | 5 | 3 |  |  |  |  |
| CCn1c(=O)c(C(=O)C2=C(O)CCCC2=O)cc2c(Cl)cccc21 [I-157] | 5 | 4 | 3 |  |  |  |  |  |  |  |  |
| Cc1ccc(C)c(-n2c(=O)c(C(=O)C3=C(O)CCCC3=O)cc3cccnc32)c1 [II-58] | 5 | 5 | 5 | 5 | 5 | 5 | 5 | 5 | 5 | 5 | 5 |
| CC(C)c1ccc2cc(C(=O)C3=C(O)CCCC3=O)c(=O)n(-c3ccccc3)c2n1 [II-128] | 5 | 5 | 5 | 5 | 5 | 5 | 5 | 4 | 5 | 5 | 5 |
| O=C1CCCC(O)=C1C(=O)c1cc2cccnc2n(Cc2cccc(Cl)c2)c1=O [II-29] | 5 | 5 | 5 |  |  |  |  |  |  |  |  |
| CCCn1c(=O)c(C(=O)C2=C(O)CCCC2=O)cc2cccnc21 [II-4] | 5 | 5 | 5 | 5 | 5 | 5 | 4 | 5 | 5 | 5 | 4 |
| Cc1ccc2cc(C(=O)C3=C(O)CCCC3=O)c(=O)n(C)c2n1 [II-121] | 5 | 5 | 5 | 5 | 5 | 4 | 3 |  |  |  |  |
| COc1ccc(-n2c(=O)c(C(=O)C3=C(O)CCCC3=O)cc3cccnc32)cc1 [II-56] | 5 | 5 | 5 | 5 | 5 | 5 | 5 | 5 | 5 | 5 | 5 |
| O=C1CCCC(O)=C1C(=O)c1cc2cccnc2n(Cc2ccc(Cl)cc2)c1=O [II-30] | 4 | 5 | 5 |  |  |  |  |  |  |  |  |
| O=C1CCCC(O)=C1C(=O)c1cc2cccnc2n(Cc2ccccc2Cl)c1=O [II-28] | 5 | 5 | 5 | 5 | 5 | 4 | 3 |  |  |  |  |
| CCn1c(=O)c(C(=O)C2=C(O)CCCC2=O)cc2cccnc21 [II-3] | 5 | 5 | 5 | 5 | 5 | 5 | 4 |  |  |  |  |
| O=C1CCCC(O)=C1C(=O)c1cc2ccc(C(F)F)nc2n(-c2ccc3c(c2)OCCO3)c1=O [II-442] | 5 | 5 | 5 |  |  |  |  |  |  |  |  |
| CCc1ccc2cc(C(=O)C3=C(O)CCCC3=O)c(=O)n(C)c2n1 [II-434] | 5 | 5 | 5 |  |  |  |  |  |  |  |  |
| COc1ccc(-n2c(=O)c(C(=O)C3=C(O)CCCC3=O)cc3ccccc32)cc1 [I-56] | 5 | 5 | 5 | 5 | 5 | 3 | 3 |  |  |  |  |
| CC(C)c1ccc2cc(C(=O)C3=C(O)CCCC3=O)c(=O)n(C)c2n1 [II-126] | 3 | 5 | 4 |  |  |  |  |  |  |  |  |
| O=C1CCCC(O)=C1C(=O)c1cc2ncccc2n(-c2ccccc2)c1=O [III-41] | 4 | 4 | 4 |  |  |  |  |  |  |  |  |
| COc1cccc(Cn2c(=O)c(C(=O)C3=C(O)CCCC3=O)cc3cccnc32)c1 [II-38] | 5 | 5 | 5 |  |  |  |  |  |  |  |  |
| O=C1CCCC(O)=C1C(=O)c1cc2ccc(C(F)(F)F)nc2n(-c2ccccc2)c1=O [II-138] | 5 | 5 | 5 | 5 | 3 | 5 | 5 |  |  |  |  |
